One block for each molecule: values may come before it. Where no end group is shown, it is not given here.
Assays:
V5-SPOP in HeLa cells = test: Immunofluorescence: V5-SPOP localization on coexpression of GFP–Pdx1 variants; type: cell-based; conditions: coexpressed with V5-SPOP, 24 h after transfection, three biological replicates
Procedure: (§1) HeLa cells were cultured under sterile conditions with Dulbecco’s modified Eagle’s medium (DMEM) (Gibco) supplemented with 10% fetal bovine serum and antibiotics/antimycotics (Gibco) (see Table S5 for key reagents and resources). T-REx-293 cells (cat. no. R710-07) were obtained from Invitrogen. Cells were grown on DMEM supplemented with 10% fetal bovine serum (Gibco), GlutaMax (Gibco), and Penicillin-Streptomycin (Gibco) and kept under selection by 5 μg/ml blasticidin. All cells were grown at 37 °C under 5% CO2 and were mycoplasma free at the time the experiments were performed.
(§2) A plasmid encoding full-length human Pdx1 (amino acids 1-283) in pcDNA3.1 with a C-terminal GFP tag was purchased from GenScript. Full-length mouse SPOP (identical to the human sequence) with a V5 epitope tag in pcDNA3 was generated previously ([21]). The coding sequence for full-length mouse SPOP was inserted into pcDNA4/TO/myc (Invitrogen) for the T-REx system. pcDNA3-myc-CUL3 (cat no. 19893) and pcDNA–HA2–ROC1 (Rbx1) (cat no. 19897) were obtained from Addgene. pcDNA3 containing His-ubiquitin was a gift from Wenyi Wei.
For immunofluorescence experiments, 0.5 × 10^6 cells were seeded on borosilicate glass coverslips in 6-well plates. After 24 h, cells were transfected with 400 ng of each plasmid using the Qiagen Effectene transfection reagent according to the manufacturer protocol. 24 h after transfection, the cells were treated with 4% paraformaldehyde in PBS for 30 min at RT. Cells were permeabilized with 0.1% Triton X-100 in PBS (PBST) for 5 min at 21 °C, followed by blocking in 0.5% BSA in PBST for 1 h at 21 °C. Signal from GFP-tagged proteins was observed directly. Cells were stained in primary antibodies diluted in 0.5% BSA in PBST overnight at 4 °C with mouse anti-SC-35 (1:300, ab11826; Abcam) and chicken anti-V5 (1:300, NB600-379; Novus Biologicals). Cells were incubated with secondary antibodies for 2 h at 21 °C. The secondary antibodies used were goat anti-mouse Alexa Fluor 647 (1:250, A-21235; Thermo Fisher) and goat anti-chicken Alexa Fluor 555 (1:250, A-21437; Thermo Fisher). Cells on coverslips were treated with 300 nM 4′,6-diamidino-2-phenylindole (DAPI) for 5 min at 21 °C. Coverslips were mounted on glass slides with ProLong Diamond mounting reagent (Thermo Fisher) and cured before imaging on a Zeiss LSM 880 Upright microscope. All images were analyzed and prepared in Fiji ([53]).
All immunofluorescence data were averaged over three biological replicates. Cells not expressing both Pdx1 and SPOP were excluded from sampling. Raw images were collected in the Zeiss Zen software and then exported for viewing and analysis in Fiji. Nuclei of individual cells were designated manually in Fiji using the DAPI channel as a guide. The cells were binned based on whether SPOP was localized to nuclear speckles (puncta); cells with both diffuse and punctate SPOP signal were binned as “speckled.” The grayscale signal intensity of the green channel (Pdx1–GFP) was averaged over the DAPI-designated nuclear area. Next, the raw GFP intensity data points (one data point per cell analyzed) were plotted to generate a violin plot distribution. The average, minimum, and maximum values are shown by horizontal lines on the plot. Individual data points are also shown for rigor. […] All plotting and statistical tests were performed using in-house python scripts that can be found at https://github.com/idpemery/spop-pdx1.

[1] = test system: SPOP-mediated ubiquitination in T-REx-293 cells; test: SPOP-mediated ubiquitination of Pdx1 variants (Ni-NTA pulldown, immunoblot); type: cell-based; conditions: SPOP–myc and GFP–Pdx1 coexpressed 24 h, then 20 μM MG132 or DMSO for 4 h, immunoblot (Fig. 6C)
Procedure: We next sought to determine whether SPOP-driven ubiquitination of Pdx1 could occur outside of previously implicated droplets. Given the SPOP relocalization phenotype that we observe in cells that express SPOP and Pdx1, we hypothesized that the ubiquitination activity was occurring in the diffuse nucleoplasm and that optimal activity requires both SB sites. To test this hypothesis, we performed in cell ubiquitination assays with GFP–Pdx1 variants. SPOP–myc and GFP–Pdx1 were coexpressed for 24 h in T-REx-293 cells, followed by a 4-h treatment with 20 μM MG132 or dimethyl sulfoxide. Proteins modified with His-ubiquitin were enriched by pulldown on nickel-nitrilotriacetic acid (Ni-NTA) resin.
as §2
Ubiquitination and Western blots
(§3) T-REx-293 cells (Invitrogen) were seeded at a density of 0.8 × 10^6 per well in 6-well plates (tissue culture–treated plates (cat. no 3516, Corning)). After 24 h, cells were transfected with plasmids encoding Pdx1–GFP, SPOP–myc, His–ubiquitin, HA–Rbx1, and myc–CUL3 (as indicated) using the Qiagen Effectene transfection reagent. 24 h after transfection, the cells were treated with either dimethyl sulfoxide or 20 μM MG132 for 4 h before being harvested. Cells were lysed in buffer A (6 M guanidine HCl, 100 mM sodium phosphate, pH 8.0, and 10 mM imidazole). The lysates were sonicated, cleared, and incubated with Ni-NTA Agarose (Qiagen) for 3 h at RT, followed by 16 h at 4 °C. The beads were washed twice with buffer A and twice with a buffer composed of 1:3 buffer A:buffer T1 (buffer T1: 25 mM Tris HCl, pH 8.0, and 20 mM imidazole). The beads were finally transferred to buffer T1 and then boiled in the SDS-PAGE loading buffer containing 300 mM imidazole. Pdx1 stability assays were performed as described above, except that the cells were not treated with MG132. Cells expressing Pdx1–GFP or a variant were harvested 28 h after transfection, resuspended in 2x SDS-loading dye, and boiled for 5 min before SDS-PAGE analysis.
(§4) All proteins were resolved by SDS-PAGE. Separated proteins were analyzed by immunoblotting using either the ECL or the ECL Select Western blotting detection reagents (Amersham). The antibodies used were mouse anti-Pdx1 used at 1:500 for pulldown or 1:2000 for inputs (clone 26771, MAB2419, R&D Systems), mouse anti-myc (1:250, clone 9E10, Santa Cruz Biotechnology), and rabbit anti-GAPDH (1:8000, clone EPR1689, Abcam). horseradish peroxidase-conjugated secondary antibodies were sourced from Jackson ImmunoResearch Laboratories and used at 1:20,000 dilution (goat anti-rabbit IgG, 111-035-003 and goat anti-mouse, 115-035-003).

[2] = test system: SPOP-dependent turnover in T-REx-293 cells; test: SPOP-dependent Pdx1 stability (Western blot); type: cell-based; conditions: no MG132, harvested 28 h after transfection, Western blot (Fig. S3D)
Procedure: In a similar experiment, the cells were not treated with a proteasome inhibitor to observe the SPOP-dependent stability of each Pdx1 variant.
as §3, §4

[3] = biological target: T1, SPOP–MATH (residues 28–166) (Homo sapiens, UniProt O43791); test: Competition fluorescence anisotropy, displacement of f-Puc from SPOP–MATH; type: binding; conditions: competition FA; 40 nM f-Puc, 6 μM SPOP–MATH; 50 mM sodium phosphate pH 6.5, 50 mM NaCl, 5 mM DTT, 1% BSA, 0.01% Triton X-100; complete competitive binding model; ± standard deviation of three independent replicates (Table S4)
T1 construct: glutathione S-transferase (GST) (N, cleaved yes); 6X His (N, cleaved yes); made in house; host or cells: E. coli BL-21(DE3)
Description: An Escherichia coli codon-optimized DNA sequence encoding amino acids 205 to 283 of the human Pdx1 sequence (Pdx1-C) in the multiple cloning site of pET49b(+) was purchased from GeneArt (Thermo Fisher). The pET49b(+) backbone encodes for N-terminal glutathione S-transferase and 6X His tags, followed by a 3C protease recognition motif. In all experiments described herein, a mutant containing an exogenous tryptophan at the N terminus of the human Pdx1-C sequence was used for the purposes of quantitation. Mutations in Pdx1-C were generated by Q5 site-directed mutagenesis (New England Biolabs) with primers designed on NEBbasechanger.com according to the manufacturer protocol. Similarly, an E. coli–optimized DNA sequence encoding residues 28 to 166 of human SPOP (SPOP–MATH) was purchased in pET49b(+) from GeneArt. […] A plasmid encoding His–SUMO–SPOP human residues 28 to 359 harboring a tobacco etch virus protease recognition site directly N terminal to the beginning of the native SPOP protein sequence was generated previously ([21]).
All FA experiments were conducted in 50 mM sodium phosphate, pH 6.5, 50 mM sodium chloride, 5 mM DTT, 1% BSA, and 0.01% Triton X-100. In all experiments, the source of fluorescence signal was f-Puc purchased from GenScript, at a final concentration of 40 nM. For direct FA measurements, SPOP–MATH or SPOP28–359 of concentrations between 0.001 and 300 μM was added to wells of 96- or 384-well plates containing f-Puc and buffer. For competition-mode experiments, serial dilutions of each competitor (Pdx1 peptide or recombinant protein) were prepared ranging from ∼0.01 μM to ∼2 mM (concentration range varied based on peptide solubility) in wells of 96- or 384-well plates containing 40 nM f-Puc and 6 μM SPOP–MATH or SPOP28–359. The fluorescence polarization of each well was measured (from which FA was calculated) using either a TECAN Infinite M1000 Pro or BioTek Synergy 4 fluorometer. All experiments were performed with at least three technical replicates. FA data points were fit to a complete competitive binding model ([23]) to determine dissociation constants using in-house Python scripts (see Quantification and statistical analysis).
All titrations were performed in triplicate for rigor. Direct FA titrations were performed to determine the dissociation constants of the fluorescent probe toward SPOP constructs. Direct titration data were fit according to equation 6 in ([54]). Competition mode titration data were fit according to the fitting function in ([23]). Average dissociation constants and standard error from the mean for all constructs from competition experiments may be found in Table S4. The python scripts used in plotting and fitting may be found at https://github.com/idpemery/spop-pdx1.

HeLa cells = test: Immunofluorescence: subcellular localization / phase separation of the protein itself; type: cell-based; conditions: SC-35 nuclear speckle marker
Procedure: as §1, §2
For immunofluorescence experiments, 0.5 × 10^6 cells were seeded on borosilicate glass coverslips in 6-well plates. After 24 h, cells were transfected with 400 ng of each plasmid using the Qiagen Effectene transfection reagent according to the manufacturer protocol. 24 h after transfection, the cells were treated with 4% paraformaldehyde in PBS for 30 min at RT. Cells were permeabilized with 0.1% Triton X-100 in PBS (PBST) for 5 min at 21 °C, followed by blocking in 0.5% BSA in PBST for 1 h at 21 °C. Signal from GFP-tagged proteins was observed directly. […] All images were analyzed and prepared in Fiji ([53]).
All immunofluorescence data were averaged over three biological replicates. […] Next, the raw GFP intensity data points (one data point per cell analyzed) were plotted to generate a violin plot distribution. […]

[4] = biological target: T2, SPOP-MATH (human SPOP residues 28-166) (human, UniProt O43791 28-166); test: fluorescence polarisation; competition fluorescence anisotropy: competitor (~0.01 μM to ~2 mM) displaces 40 nM f-Puc from 6 μM SPOP-MATH or SPOP28-359; complete competitive binding fit; 50 mM sodium phosphate pH 6.5, 50 mM NaCl, 5 mM DTT, 1% BSA, 0.01% Triton X-100; conditions: both partners purified
T2 construct: N-terminal Gly-Pro-Gly cloning artefact left after 3C protease; speckle-type POZ protein (SPOP), human, MATH domain, residues 28-166; uniformly 15N-labelled for the NMR experiments; also called 15N-SPOP-MATH; source: E. coli BL-21(DE3), purified (Ni-NTA, 3C protease, second Ni-NTA, Sephacryl S100); not shown: GST, N-terminal, cleaved; His6, N-terminal, cleaved
T2 sequence (O43791 other isoform, or with tags, fused parts or gaps): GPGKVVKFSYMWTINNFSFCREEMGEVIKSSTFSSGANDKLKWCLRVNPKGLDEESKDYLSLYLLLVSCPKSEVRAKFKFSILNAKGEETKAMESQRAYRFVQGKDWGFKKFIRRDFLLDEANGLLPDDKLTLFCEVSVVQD

Molecule: GFP–Pdx1–ΔSBM1: GFP–Pdx1 with deletion of the higher-affinity SBM1 (residues 224–236)
SPOP relocalization from nuclear speckles by Pdx1 variant (V5-SPOP in HeLa cells): all cells, regardless of GFP–Pdx1–ΔSBM1 levels, contain punctate V5-SPOP
ubiquitination of Pdx1 variant [1]: impedes ubiquitination, as shown by no shift from the unmodified band
ubiquitination of Pdx1 variant ([1]; listed as Pdx1 lacking SBM1): not observably ubiquitinated
SPOP-dependent Pdx1 stability [2]: more stable relative to the WT protein

KD (binding to SPOP-MATH) [3]: no binding
Molecule: Ac-GSSSEADEMAKALEAELNDLM [Mock (Fcp1), mock peptide, residues 941-961, negative control, reference compound]

Kd [3]: > 600 µM
Molecule: Ac-LSASPQPSSVAPRRPQEPR [Pdx1–SBM2]

B1: V5-SPOP: full-length mouse SPOP (identical to the human sequence) with a V5 epitope tag (protein, UniProt Q6ZWS8 1-374, looked up)
chain: MSRVPSPPPPAEMSSGPVAESWCYTQIKVVKFSYMWTINNFSFCREEMGEVIKSSTFSSGANDKLKWCLRVNPKGLDEESKDYLSLYLLLVSCPKSEVRAKFKFSILNAKGEETKAMESQRAYRFVQGKDWGFKKFIRRDFLLDEANGLLPDDKLTLFCEVSVVQDSVNISGQNTMNMVKVPECRLADELGGLWENSRFTDCCLCVAGQEFQAHKAILAARSPVFSAMFEHEMEESKKNRVEINDVEPEVFKEMMCFIYTGKAPNLDKMADDLLAAADKYALERLKVMCEDALCSNLSVENAAEILILADLHSADQLKTQAVDFINYHASDVLETSGWKSMVVSHPHLVAEAYRSLASAQCPFLGPPRKRLKQS
modifications: full-length V5 tag
V5-SPOP localization when expressed alone (HeLa cells): localizes to nuclear speckles

B2: W131G: substrate binding-impaired SPOP mutant (protein, UniProt O43791 1-374, looked up, variant W131G)
Speckle-type POZ protein: MSRVPSPPPPAEMSSGPVAESWCYTQIKVVKFSYMWTINNFSFCREEMGEVIKSSTFSSGANDKLKWCLRVNPKGLDEESKDYLSLYLLLVSCPKSEVRAKFKFSILNAKGEETKAMESQRAYRFVQGKDGGFKKFIRRDFLLDEANGLLPDDKLTLFCEVSVVQDSVNISGQNTMNMVKVPECRLADELGGLWENSRFTDCCLCVAGQEFQAHKAILAARSPVFSAMFEHEMEESKKNRVEINDVEPEVFKEMMCFIYTGKAPNLDKMADDLLAAADKYALERLKVMCEDALCSNLSVENAAEILILADLHSADQLKTQAVDFINYHASDVLETSGWKSMVVSHPHLVAEAYRSLASAQCPFLGPPRKRLKQS
modifications: V5 tag
ubiquitination of Pdx1 variant [1]: lack of any shift of the Pdx1 band

Kd [4]: 630 µM
B3: Pdx1-SBM2 peptide (human Pdx1 residues 265-283) (peptide)
peptide: Ac-LSASPQPSSVAPRRPQEPR
notes: pancreatic and duodenal homeobox 1 (Pdx1), human, residues 265-283; also called Pdx1 265-283; source: synthetic peptide (Tufts University Core Facility, HPLC purified)

Reference: paper PMC8138767, “Intrinsically disordered substrates dictate SPOP subnuclear localization and ubiquitination activity” (The Journal of Biological Chemistry, 2021)
